In publication PMC8344235, “α-Amylase and dipeptidyl peptidase-4 (DPP-4) inhibitory effects of Melicope latifolia bark extracts and identification of bioactive constituents using in vitro and in silico approaches” (Pharmaceutical Biology, 2021):
Several values for one entry are separate records, joined by “and”; a condition that tells them apart may be missing. Equal entries are not always repeated. Where two headings read alike, the source gives them in different places. Marks after values point to notes of the source that are not given here.

Key:
[1] = DPPH free radical scavenging assay; settings: for IC50 / DPPH IC50: mean ± SD of triplicates; for DPPH IC50: ND = IC50 not detected at highest tested concentration (1 mg/mL)
Description: Free radical scavenging ability of M. latifolia fractions and compounds were determined using stable free radical 2,2-diphenyl-1-picrylhydrazyl (DPPH) following the method described by Tan et al. ([2019]). The extracts (170 μL) at varying concentrations ([…]) were mixed with 30 μL of methanolic DPPH solution (300 μM) in a 96-well microplate. The mixtures were then incubated at room temperature for 30 min in the dark, followed by an absorbance measurement at 517 nm. For the negative control well, the extract was replaced by methanol. Ascorbic acid, α-tocopherol, and BHT were used as standards.

[2] = β-Carotene bleaching assay; settings: samples 1 mg/mL, 50 °C, 2 h
Description: The antioxidant capacity of M. latifolia fractions and isolated constituents by β-carotene bleaching was performed according to a method described by Kassim et al. ([2019]). In brief, 210 µL of β-carotene solution (1 mg/mL in chloroform) was added to Tween 20 (42 µL) and linoleic acid (5 µL) in a round bottom flask. The chloroform was removed by rotary evaporation prior to the addition of […] of distilled water and shaken to form an emulsion. The emulsion (200 µL) was then transferred into each well of a 96-well microplate that contains 50 µL of samples (1 mg/mL). The mixture was incubated at 50 °C in the dark for 2 h, and its absorbance was measured at 470 nm at the initial time (t = 0) and every subsequent 30 min for 2 h (t = 2). Ascorbic acid, α-tocopherol, and BHT were used as positive controls. Methanol was used to replace the test samples as a negative control. The antioxidant activity (AA) was calculated according to the formula (5): (5) AA% = 1 − [(At=0 – At=2)/(Ac=0 – Ac=2)] × 100 whereby At=0 and At=2 are the absorbance of the samples measured at 0 and 2 h, respectively; Ac=0 and Ac=2 are the absorbance of negative control measured at 0 and 2 h, respectively.

[3] = target: T1, human-recombinant DPP-4 enzyme (Homo sapiens, UniProt P27487); experiment: DPP-4 inhibitory assay (fluorescence screening kit); type: biochemical
T1 construct: purchased Cayman Chemical (Ann Arbor, MI)
Description: DPP-4 inhibitor screening kit (Cayman Chemical, Ann Arbor, MI) was used to evaluate the DPP-4 inhibitory activity of the test samples based on a fluorescence assay method. Briefly, samples (10 μL) with different concentrations in DMSO were each pipetted into a 96-well plate followed by the addition of diluted assay buffer (30 μL), diluted human-recombinant DPP-4 enzyme solution (10 μL), and diluted fluorogenic substrate, Gly-Pro-aminomethylcoumarin (AMC) (50 μL). […] The 96-well plate was shaken and incubated for 30 min at 37 °C.

[4] = highest tested concentration, read-out: DPP-4 IC50 not detected at the highest concentration

T1 sequence (P27487 whole entry): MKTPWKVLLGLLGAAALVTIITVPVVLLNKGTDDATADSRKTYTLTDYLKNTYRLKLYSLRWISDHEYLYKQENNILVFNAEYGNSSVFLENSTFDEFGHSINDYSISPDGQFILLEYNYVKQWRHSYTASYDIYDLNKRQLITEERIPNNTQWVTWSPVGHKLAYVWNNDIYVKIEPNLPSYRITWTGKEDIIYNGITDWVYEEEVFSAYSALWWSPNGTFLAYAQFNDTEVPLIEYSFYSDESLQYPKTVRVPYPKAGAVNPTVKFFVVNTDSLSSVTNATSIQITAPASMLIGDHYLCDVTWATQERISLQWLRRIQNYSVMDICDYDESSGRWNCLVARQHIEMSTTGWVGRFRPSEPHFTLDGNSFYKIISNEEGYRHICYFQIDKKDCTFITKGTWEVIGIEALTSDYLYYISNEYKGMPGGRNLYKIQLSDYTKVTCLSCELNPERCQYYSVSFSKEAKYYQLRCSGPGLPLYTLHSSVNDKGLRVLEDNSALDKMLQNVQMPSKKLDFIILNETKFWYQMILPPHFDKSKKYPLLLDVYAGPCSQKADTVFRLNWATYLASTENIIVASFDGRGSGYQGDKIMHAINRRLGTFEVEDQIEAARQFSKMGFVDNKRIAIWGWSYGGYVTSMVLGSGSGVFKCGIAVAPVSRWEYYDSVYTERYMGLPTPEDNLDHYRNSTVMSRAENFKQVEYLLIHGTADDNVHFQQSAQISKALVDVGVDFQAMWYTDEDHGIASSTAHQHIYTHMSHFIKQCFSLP

Cc1cc(C(C)(C)C)c(O)c(C(C)(C)C)c1 [BHT, butylated hydroxytoluene]
IC50 [1]: 44.9 µM
DPPH IC50 [1]: 9.90 ± 0.03 µg/mL
β-Carotene bleaching activity AA (%) [2]: 76.42% and 76.42 ± 0.02^c %

Cc1c(C)c2c(c(C)c1O)CC[C@@](C)(CCC[C@H](C)CCC[C@H](C)CCCC(C)C)O2 [α-Tocopherol]
IC50 [1]: 43.6 µM
DPPH IC50 [1]: 18.79 ± 0.01 µg/mL
β-Carotene bleaching activity AA (%) [2]: 98.01 ± 0.02^a %

COc1c(OC)c2c(OC)c3ccoc3cc2oc1=O [Compound 2, halfordin]
IC50 [3, 4]: > 3620 µM
IC50 [1]: 6430 µM
DPPH IC50 [1]: 1776.01 ± 0.16 µg/mL
β-Carotene bleaching activity AA (%) [2]: 88.48% and 88.48 ± 0.02^b %

O=C1O[C@H]([C@@H](O)CO)C(O)=C1O [Ascorbic acid]
IC50 [1]: 85.2 µM
DPPH IC50 [1]: 15.00 ± 0.01 µg/mL
β-Carotene bleaching activity AA (%) [2]: 35.23 ± 0.02^g %

COC(=O)/C=C/c1ccc(O)cc1 [Compound 3, methyl p-coumarate]
IC50 ([3]; mean ± SD of triplicates, ND = IC50 not detected at highest tested concentration (1 mg/mL), read-out: DPP-4 IC50 (converted)): 911 µM
IC50 ([3]; mean ± SD of triplicates, read-out: DPP-4 IC50 (converted)): 911 µM
DPPH IC50 not detected at the highest concentration ([1]; highest tested concentration): > 1000 µg/mL
β-Carotene bleaching activity AA (%) [2]: 1.08 ± 0.02^g %

CC[C@H](CC[C@@H](C)[C@H]1CC[C@H]2[C@@H]3CC=C4C[C@@H](O)CC[C@]4(C)[C@H]3CC[C@]12C)C(C)C [Compound 1, β-sitosterol]
IC50 [3, 4]: > 2410 µM

O=C(O)c1ccc(O)c(O)c1 [Compound 4, protocatechuic acid]
IC50 [3, 4]: > 6490 µM
